This note sets out measurements from US10357035B2, “Microbiocidal anilide derivatives” (SYNGENTA PARTICIPATIONS AG, priority 2015, dated 2019).

Each structure is given as a SMILES string.

Take `COc1ccnc(C(=O)Nc2ccc(OC3CCCCC3)cc2)c1O` [I.b.66, N-[4-(cyclohexoxy)phenyl]-3-hydroxy-4-methoxy-pyridine-2-carboxamide]: the melting point was in the range of 114 to 117 °C.

The molecule `CC1(C)CCC(Oc2ccc(NC(=O)c3cccc4ncoc34)c(F)c2)CC1` [I.r.133, N-[4-(4,4-dimethylcyclohexoxy)-2-fluoro-phenyl]-1,3-benzoxazole-7-carboxamide] came in with a melting point of 130 to 132 °C.

One may read the melting point as the temperature of the solid-liquid transition.
